Experimental data reported in PubChem BioAssay (NCI).
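Interpolation was linear, between the two tested concentrations surrounding the appropriate level; five concentrations were tested over 48 hours in 96-well plates. Here, GI50 denotes the concentration required for 50% inhibition of growth. TGI denotes the concentration required for complete inhibition of growth.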

Legend:
Test in all cases: NCI anticancer screen, dose series, 48 h
[1] = test system: NCI/ADR-RES ovarian
[2] = test system: OVCAR-5 ovarian
[3] = test system: K-562 leukemia
[4] = test system: SN12C renal
[5] = test system: MDA-MB-435
[6] = test system: A498 renal
[7] = test system: U251 CNS
[8] = test system: HS 578T breast
[9] = test system: UO-31 renal
[10] = test system: HT29 colon
[11] = test system: MDA-MB-231 breast
[12] = test system: M14 melanoma
[13] = test system: OVCAR-8 ovarian
[14] = test system: HCT-116 colon
[15] = test system: NCI-H226 lung
[16] = test system: HOP-62 NSCLC
[17] = test system: IGROV1 ovarian
[18] = test system: ACHN renal
[19] = test system: LOX IMVI melanoma
[20] = test system: SK-MEL-2 melanoma
[21] = test system: UACC-62 melanoma
[22] = test system: RXF 393 renal
[23] = test system: TK-10 renal
[24] = test system: DU-145 prostate
[25] = test system: SK-MEL-5 melanoma
[26] = test system: A549 NSCLC
[27] = test system: HCC-2998 colon
[28] = test system: 786-0 renal
[29] = test system: NCI-H522 lung
[30] = test system: UACC-257 melanoma
[31] = test system: PC-3 prostate
[32] = test system: EKVX NSCLC
[33] = test system: COLO 205 colon
[34] = test system: BT-549 breast
[35] = test system: KM12 colon
[36] = test system: CAKI-1 renal
[37] = test system: NCI-H460 lung
[38] = test system: MCF7 breast
[39] = test system: SR leukemia
[40] = test system: OVCAR-3 ovarian
[41] = test system: SNB-19 CNS
[42] = test system: SF-295 CNS
[43] = test system: T-47D breast
[44] = test system: HOP-92 NSCLC
[45] = test system: SK-OV-3 ovarian
[46] = test system: MALME-3M melanoma
[47] = test system: SF-539 CNS
[48] = test system: NCI-H23 lung
[49] = test system: SW-620 colon
[50] = test system: SF-268 CNS
[51] = test system: CCRF-CEM leukemia
[52] = test system: SK-MEL-28 melanoma
[53] = test system: OVCAR-4 ovarian
[54] = test system: SNB-75 CNS
[55] = test system: HL-60(TB) leukemia
[56] = test system: HCT-15 colon
[57] = test system: MOLT-4 leukemia

With `NC(N)=N/N=C/c1c(-c2ccc(Cl)c([N+](=O)[O-])c2)nc2sc3ccccc3n12` the GI50 [1] was 583 nM, the TGI [1] was 1760 nM and the GI50 [2] was 773 nM. It also gave a TGI [2] of 1440 nM, a GI50 [3] of 209 nM and a TGI [3] greater than 50000 nM. The GI50 [4] was 529 nM, the TGI [4] was 1380 nM and the GI50 [5] was 1100 nM. It also gave a TGI [5] of 2400 nM, a GI50 [6] of 3900 nM and a TGI [6] of 11200 nM. For the same compound, the GI50 [7] was 95.1 nM, the TGI [7] was 177 nM and the GI50 [8] was 1380 nM. The TGI [8] was 2910 nM, the GI50 [9] was 23600 nM and the TGI [9] was greater than 50000 nM. For the same compound, the GI50 [10] was 1930 nM, the TGI [10] was greater than 50000 nM and the GI50 [11] was 697 nM. The TGI [11] was 1470 nM, the GI50 [12] was 136 nM and the TGI [12] was 12000 nM. For the same compound, the GI50 [13] was 1190 nM, the TGI [13] was 2760 nM and the GI50 [14] was 20 nM. The TGI [14] was 8970 nM, the GI50 [15] was 1790 nM and the TGI [15] was 11100 nM. The GI50 [16] was 11600 nM, the TGI [16] was 28100 nM and the GI50 [17] was 11800 nM. It also gave a TGI [17] greater than 50000 nM, a GI50 [18] of 862 nM and a TGI [18] of 1560 nM. It also gave a GI50 [19] of 92.3 nM, a TGI [19] of 170 nM and a GI50 [20] of 26800 nM. It also gave a TGI [20] greater than 50000 nM, a GI50 [21] of 849 nM and a TGI [21] of 1580 nM. For the same compound, the GI50 [22] was 10900 nM, the TGI [22] was 26900 nM and the GI50 [23] was 950 nM. It also gave a TGI [23] of 1910 nM, a GI50 [24] of 2290 nM and a TGI [24] of 14800 nM. The GI50 [25] was 952 nM, the TGI [25] was 1950 nM and the GI50 [26] was 1610 nM. For the same compound, the TGI [26] was greater than 12200 nM, the GI50 [27] was 296 nM and the TGI [27] was 950 nM. The GI50 [28] was 951 nM, the TGI [28] was 1750 nM and the GI50 [29] was 3660 nM. For the same compound, the TGI [29] was greater than 50000 nM, the GI50 [30] was 8380 nM and the TGI [30] was 18000 nM. It also gave a GI50 [31] of 738 nM, a TGI [31] of 1400 nM and a GI50 [32] of 2030 nM. It also gave a TGI [32] of 7160 nM, a GI50 [33] of 980 nM and a GI50 [34] of 895 nM. The TGI [34] was 2120 nM, the GI50 [35] was 842 nM and the TGI [35] was 2540 nM. For the same compound, the GI50 [36] was 1660 nM and the TGI [36] was 8490 nM.
`COc1ccc(-c2cc(-c3ccccc3)nc(NCCNc3ccnc4cc(Cl)ccc34)n2)cc1` gave a GI50 [1] of 1710 nM, a TGI [1] of 3790 nM and a GI50 [37] of 1920 nM. It also gave a TGI [37] of 3720 nM, a GI50 [2] of 1760 nM and a TGI [2] of 3300 nM. For the same compound, the GI50 [3] was 323 nM, the TGI [3] was 1030 nM and the GI50 [4] was 1610 nM. For the same compound, the TGI [4] was 3300 nM, the GI50 [38] was 1530 nM and the TGI [38] was 3420 nM. It also gave a GI50 [39] of 435 nM, a TGI [39] greater than 100000 nM and a GI50 [5] of 1470 nM. The TGI [5] was 3010 nM, the GI50 [6] was 1630 nM and the TGI [6] was 3160 nM. For the same compound, the GI50 [40] was 1820 nM, the TGI [40] was 3390 nM and the GI50 [7] was 1750 nM. For the same compound, the TGI [7] was 3380 nM, the GI50 [8] was 1810 nM and the TGI [8] was 3780 nM. For the same compound, the GI50 [41] was 1770 nM, the TGI [41] was 3680 nM and the GI50 [9] was 1420 nM. It also gave a TGI [9] of 2930 nM, a GI50 [10] of 1720 nM and a TGI [10] of 3430 nM. It also gave a GI50 [42] of 1800 nM, a TGI [42] of 3490 nM and a GI50 [43] of 812 nM. For the same compound, the TGI [43] was 2610 nM, the GI50 [11] was 1810 nM and the TGI [11] was 3490 nM. For the same compound, the GI50 [44] was 1170 nM, the TGI [44] was 2570 nM and the GI50 [45] was 1780 nM. The TGI [45] was 3340 nM, the GI50 [15] was 1960 nM and the TGI [15] was 4560 nM. It also gave a GI50 [46] of 1700 nM, a TGI [46] of 3420 nM and a GI50 [47] of 1860 nM. The TGI [47] was 3330 nM, the GI50 [48] was 1840 nM and the TGI [48] was 3700 nM. For the same compound, the GI50 [16] was 1870 nM, the TGI [16] was 3700 nM and the GI50 [17] was 1460 nM. The TGI [17] was 3180 nM, the GI50 [18] was 1700 nM and the TGI [18] was 3160 nM. It also gave a GI50 [19] of 1550 nM, a TGI [19] of 3260 nM and a GI50 [49] of 1320 nM. It also gave a TGI [49] of 2990 nM, a GI50 [20] of 1840 nM and a TGI [20] of 3430 nM. It also gave a GI50 [21] of 1840 nM, a TGI [21] of 3520 nM and a GI50 [50] of 1780 nM. It also gave a TGI [50] of 3620 nM, a GI50 [23] of 1820 nM and a TGI [23] of 3440 nM. For the same compound, the GI50 [51] was 306 nM, the TGI [51] was 1210 nM and the GI50 [24] was 1770 nM. The TGI [24] was 3280 nM, the GI50 [52] was 1730 nM and the TGI [52] was 3350 nM. The GI50 [25] was 1790 nM, the TGI [25] was 3300 nM and the GI50 [53] was 1930 nM. It also gave a TGI [53] of 3710 nM, a GI50 [26] of 1820 nM and a TGI [26] of 3550 nM. It also gave a GI50 [28] of 1720 nM, a TGI [28] of 3350 nM and a GI50 [54] of 1600 nM. The TGI [54] was 3050 nM, the GI50 [29] was 1870 nM and the TGI [29] was 3800 nM. It also gave a GI50 [30] of 1920 nM, a TGI [30] of 3930 nM and a GI50 [55] of 1720 nM. The TGI [55] was 3620 nM, the GI50 [32] was 1790 nM and the TGI [32] was 3590 nM. It also gave a GI50 [33] of 1840 nM, a TGI [33] of 3830 nM and a GI50 [56] of 591 nM. It also gave a TGI [56] of 2090 nM, a GI50 [35] of 1840 nM and a TGI [35] of 3520 nM. The GI50 [36] was 1570 nM and the TGI [36] was 2960 nM.
`COc1cccc(CC2C(=O)NC(=O)NC2=O)c1` was tested, and the GI50 [39] was 39.5 µg/mL.
`c1ccc(Nc2nnc(CCCCCCCCc3nnc(Nc4ccccc4)o3)o2)cc1` gave a TGI [1] greater than 100000 nM, a TGI [37] greater than 100000 nM and a TGI [2] greater than 100000 nM. For the same compound, the TGI [3] was greater than 100000 nM, the TGI [4] was greater than 100000 nM and the TGI [38] was greater than 100000 nM. For the same compound, the TGI [5] was greater than 100000 nM, the TGI [6] was greater than 100000 nM and the TGI [40] was greater than 100000 nM. It also gave a TGI [7] greater than 100000 nM, a TGI [41] greater than 100000 nM and a TGI [9] greater than 100000 nM. It also gave a TGI [10] greater than 100000 nM, a TGI [42] greater than 100000 nM and a TGI [11] greater than 100000 nM. It also gave a TGI [12] greater than 100000 nM, a TGI [13] greater than 100000 nM and a TGI [45] greater than 100000 nM. The TGI [14] was greater than 100000 nM, the TGI [15] was greater than 100000 nM and the TGI [46] was greater than 100000 nM. The TGI [47] was greater than 100000 nM, the TGI [48] was greater than 100000 nM and the TGI [16] was greater than 100000 nM. For the same compound, the TGI [17] was greater than 100000 nM, the TGI [18] was greater than 100000 nM and the TGI [19] was greater than 100000 nM. The TGI [49] was greater than 100000 nM, the TGI [20] was greater than 100000 nM and the TGI [22] was greater than 100000 nM. It also gave a TGI [50] greater than 100000 nM, a TGI [23] greater than 100000 nM and a TGI [51] greater than 100000 nM. The TGI [24] was greater than 100000 nM, the TGI [52] was greater than 100000 nM and the TGI [25] was greater than 100000 nM. For the same compound, the TGI [53] was greater than 100000 nM, the TGI [26] was greater than 100000 nM and the TGI [27] was greater than 100000 nM. It also gave a TGI [57] greater than 100000 nM, a TGI [28] greater than 100000 nM and a TGI [54] greater than 100000 nM. The TGI [29] was greater than 100000 nM, the TGI [30] was greater than 100000 nM and the TGI [31] was greater than 100000 nM. The TGI [55] was greater than 100000 nM, the TGI [32] was greater than 100000 nM and the TGI [33] was greater than 100000 nM. The TGI [56] was greater than 100000 nM, the TGI [34] was greater than 100000 nM and the TGI [35] was greater than 100000 nM. For the same compound, the TGI [36] was greater than 100000 nM.
